Literature values, collected in patent US12201623B1, “Composition and method for preventing long-term COVID-19 morbidity” (priority 2021, dated 2025).

Tested on: SARS-COV-2
Details: peripheral blood monocytes purified from healthy volunteers

| SMILES | SARS-COV-2 replication |
| --- | --- |
| CC(=O)N[C@@H](CS)C(=O)O [NAC] | suppressed |
| COC1=C(OC)C(=O)C(CCCCCCCCCC[P+](c2ccccc2)(c2ccccc2)c2ccccc2)=C(C)C1=O [MitoQ] | suppressed |
